Data published in ChEMBL document CHEMBL5137080, “Discovery of Novel 7-Hydroxy-5-oxo-4,5-dihydrothieno[3,2-b]pyridine-6-carboxamide Derivatives with Potent and Selective Antifungal Activity against Cryptococcus Species” (J Med Chem, 2022).
≈ marks a conversion by molar mass, not a printed value.

Experiments:
Candida albicans = assay: Antifungal activity against Candida albicans SC5314 assessed as fungal growth inhibition incubated for 48 hrs by broth microdilution method; assay type: functional
Aspergillus fumigatus = assay: Antifungal activity against Aspergillus fumigatus 7544 assessed as fungal growth inhibition incubated for 48 hrs by broth microdilution method; assay type: functional
Cryptococcus neoformans = assay: Antifungal activity against Cryptococcus neoformans H99 assessed as fungal growth inhibition incubated for 72 hrs by broth microdilution method; assay type: functional
[1] = Cytotoxicity against human HUVEC cells assessed as inhibition on cell growth incubated for 24 hrs by CCK-8 assay; assay type: toxicity, cell-based
[2] = Cytotoxicity against human HUVEC cells assessed as cell viability at 64 ug/ml incubated for 24 hrs by CCK-8 assay; assay type: toxicity, cell-based; details: at 64 µg/mL, read-out: Activity
[3] = Cytotoxicity against human Caco-2 cells assessed as cell viability at 64 ug/ml incubated for 24 hrs by CCK-8 assay; assay type: toxicity, cell-based; details: at 64 µg/mL, read-out: Activity
[4] = Cytotoxicity against human HUVEC cells assessed as cell viability at 256 ug/ml incubated for 24 hrs by CCK-8 assay; assay type: toxicity, cell-based; details: at 256 µg/mL, read-out: Activity
[5] = Cytotoxicity against human Caco-2 cells assessed as cell viability at 256 ug/ml incubated for 24 hrs by CCK-8 assay; assay type: toxicity, cell-based; details: at 256 µg/mL, read-out: Activity
[6] = Hemolytic activity in rabbit RBC at 16 ug/ml incubated for 1 hr by spectrophotometry; assay type: toxicity, cell-based, Oryctolagus cuniculus, Erythrocyte; details: red blood cells, at 16 µg/mL, read-out: Activity
[7] = Hemolytic activity in rabbit RBC at 32 ug/ml incubated for 1 hr by spectrophotometry; assay type: toxicity, cell-based, Oryctolagus cuniculus, Erythrocyte; details: red blood cells, at 32 µg/mL, read-out: Activity
[8] = Hemolytic activity in rabbit RBC at 64 ug/ml incubated for 1 hr by spectrophotometry; assay type: toxicity, cell-based, Oryctolagus cuniculus, Erythrocyte; details: red blood cells, at 64 µg/mL, read-out: Activity

Row | SMILES | MIC (Candida albicans) [µg/mL] | MIC (Aspergillus fumigatus) [µg/mL] | MIC (Cryptococcus neoformans) [µg/mL] | IC50 at 24 h [1] [µg/mL] | other results
1 | O=C(NCCCO)c1c(O)c2sccc2n(Cc2ccccc2)c1=O | > 64 | 32 (≈ 89.3 µM) | 4 (≈ 11.2 µM) | 64 (≈ 179 µM) | –
2 | O=C(NCCc1cccs1)c1c(O)c2sccc2n(Cc2ccccc2)c1=O | > 64 | > 64 | 2 (≈ 4.87 µM) | – | –
3 | O=C(NC1CCCCC1)c1c(O)c2sccc2n(Cc2ccccc2)c1=O | > 64 | > 64 | 8 (≈ 20.9 µM) | > 64 | –
4 | CC(C)CNC(=O)c1c(O)c2sccc2n(Cc2ccccc2)c1=O | > 64 | > 64 | 16 (≈ 44.9 µM) | – | –
5 | CC1CCN(CCNC(=O)c2c(O)c3sccc3n(Cc3ccccc3)c2=O)CC1 | 32 (≈ 75.2 µM) | 32 (≈ 75.2 µM) | 32 (≈ 75.2 µM) | – | –
6 | COCCNC(=O)c1c(O)c2sccc2n(Cc2ccccc2)c1=O | > 64 | 32 (≈ 89.3 µM) | 2 (≈ 5.58 µM) | 16 (≈ 44.6 µM) | –
7 | O=C(NCCc1c[nH]c2ccccc12)c1c(O)c2sccc2n(Cc2ccccc2)c1=O | > 64 | > 64 | 8 (≈ 18 µM) | – | –
8 | CC(C)NC(=O)c1c(O)c2sccc2n(Cc2ccccc2)c1=O | > 64 | > 64 | 2 (≈ 5.84 µM) | > 64 | –
9 | O=C(NCCCCO)c1c(O)c2sccc2n(Cc2ccccc2)c1=O | > 64 | 32 (≈ 85.9 µM) | 2 (≈ 5.37 µM) | 16 (≈ 43 µM) | –
10 | Cc1ccc(CNC(=O)c2c(O)c3sccc3n(Cc3ccccc3)c2=O)o1 | > 64 | > 64 | 2 (≈ 5.07 µM) | – | –
11 | O=C(NCc1ccccn1)c1c(O)c2sccc2n(Cc2ccccc2)c1=O | > 64 | 16 (≈ 40.9 µM) | 2 (≈ 5.11 µM) | – | –
12 | CC(NC(=O)c1c(O)c2sccc2n(Cc2ccccc2)c1=O)c1ccccc1 (stereo not given) | > 64 | > 64 | 4 (≈ 9.89 µM) | – | –
13 | C[C@@H]1[C@H](O)[C@@H](C)/C=C/C=C/C=C/C=C/C=C/C=C/C=C/[C@H](O[C@@H]2O[C@H](C)[C@@H](O)[C@H](N)[C@@H]2O)C[C@@H]2O[C@](O)(C[C@@H](O)C[C@@H](O)[C@H](O)CC[C@@H](O)C[C@@H](O)CC(=O)O[C@H]1C)C[C@H](O)[C@H]2C(=O)O [AMPHOTERICIN B] | 0.125 (≈ 0.135 µM) | 2 (≈ 2.16 µM) | 1 (≈ 1.08 µM) | 16 (≈ 17.3 µM) | viability at 24 h, 64 ug/ml [2]: 68.2%; viability at 24 h, 64 ug/ml [3]: 64.8%; viability at 24 h, 256 ug/ml [4]: 13.7%; viability at 24 h, 256 ug/ml [5]: 28.7%; hemolysis at 1 h, 16 ug/ml [6]: 8.06%; hemolysis at 1 h, 32 ug/ml [7]: > 95%; hemolysis at 1 h, 64 ug/ml [8]: 100%
14 | CCCCCCNC(=O)c1c(O)c2sccc2n(Cc2ccccc2)c1=O | > 64 | > 64 | 0.5 (≈ 1.3 µM) | > 64 | –
15 | O=C(NCC1CCCO1)c1c(O)c2sccc2n(Cc2ccccc2)c1=O (stereo not given) | 32 (≈ 83.2 µM) | 16 (≈ 41.6 µM) | 4 (≈ 10.4 µM) | – | –
16 | O=C(NCc1ccc(F)cc1F)c1c(O)c2sccc2n(Cc2ccccc2)c1=O | > 64 | > 64 | 2 (≈ 4.69 µM) | – | –
17 | O=C(NCc1ccccc1Cl)c1c(O)c2sccc2n(Cc2ccccc2)c1=O | > 64 | > 64 | 2 (≈ 4.71 µM) | – | –
18 | CSc1ccc(CNC(=O)c2c(O)c3sccc3n(Cc3ccccc3)c2=O)cc1 | > 64 | > 64 | 2 (≈ 4.58 µM) | – | –
19 | O=C(NCc1ccncc1)c1c(O)c2sccc2n(Cc2ccccc2)c1=O | 64 (≈ 163 µM) | 8 (≈ 20.4 µM) | 2 (≈ 5.11 µM) | – | –
20 | O=C(NCc1ccc(F)cc1)c1c(O)c2sccc2n(Cc2ccccc2)c1=O | > 64 | > 64 | 4 (≈ 9.79 µM) | – | –
21 | CCCCCNC(=O)c1c(O)c2sccc2n(Cc2ccccc2)c1=O | > 64 | > 64 | 0.5 (≈ 1.35 µM) | > 64 | –
22 | COc1cccc(CNC(=O)c2c(O)c3sccc3n(Cc3ccccc3)c2=O)c1 | > 64 | > 64 | 2 (≈ 4.76 µM) | – | –
23 | C=CCCNC(=O)c1c(O)c2sccc2n(Cc2ccccc2)c1=O | > 64 | > 64 | 0.25 (≈ 0.705 µM) | > 64 | –
